Test results from article PMC10115881, “Disrupting the α-synuclein-ESCRT interaction with a peptide inhibitor mitigates neurodegeneration in preclinical models of Parkinson’s disease” (Nature Communications, 2023).

Columns and labels:
Format in all cases: cell-based, human
[1] = tested on: WT a-syn-mediated cytotoxicity in HEK293 cells; assay: Pooled lentiviral 7-mer peptide cytotoxicity screen, WT a-syn + MG132; settings: for Reads 0M MG132: Illumina reads, average Phred >30;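 for Slope Norm Reads: reads normalized to total peptide reads per sample with scalar factor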
Text: (§1) We used a lentiviral library of 50,549 7-mer peptides enriched in PPI motifs[13] on a green fluorescent protein (GFP) scaffold (Fig. 1A). We infected cells in a pooled format and the amino acid sequence of each peptide served as its own barcode. By using a low multiplicity of infection followed by puromycin selection, each infected cell expressed one unique GFP-peptide. We screened for peptides that reduced a-syn-mediated cytotoxicity or a-syn oligomers in parallel (Fig. 1A). To cause cytotoxicity relevant to PD, we induced proteostatic stress in HEK293 cells by inhibiting the proteasome with MG132 and overexpressing human WT a-syn associated with idiopathic PD in one screen or the more toxic mutant A53T a-syn associated with familial PD in a second screen. This combination of a-syn overexpression and pharmacological proteasome inhibition led to death of most cells, with only those that expressed a protective peptide surviving. By extracting genomic DNA from the surviving cells and amplifying the peptide coding sequences, we identified the protective peptides (Fig. 1A). To detect a-syn oligomers, we used a protein fragment complementation assay (PCA) of a-syn oligomerization in HEK293 cells. In this assay, human A53T a-syn was fused to either the C- or N-terminal half of yellow fluorescent protein (YFP). No fluorescence is detectable while a-syn exists in monomers but, when a-syn oligomerizes, the two halves of YFP come in close enough proximity to form a functional, spontaneously fluorescent protein. […] Our screens yielded 10 hits (Table S1). The hit with the most reads (i.e., the most abundant) was the same peptide in all screens: IPIQLKA (named PDpep1) (Table S1). We validated the cytoprotective effects of PDpep1 in HEK293 cells overexpressing WT or A53T a-syn (Figs. 1B, S1A), as well as its ability to reduce WT or A53T a-syn oligomers in a luciferase-based PCA[18]–[20] compared to a scrambled control peptide (Figs. 1C, S1B).
(§2) HEK293T cells (ATCC, CRL-3216) were maintained in DMEM supplemented with 10% FBS and 1% pen/strep/glutamine, and the appropriate selection antibiotics when required. Lentiviruses were made in a 15 cm dish format by transfecting packaging cells (HEK293T) with a three-plasmid system (expression vector, psPAX2 and pMD2.G) and using Polyjet DNA transfection reagent (FroggaBio, SL100688.1). Viral transduction of HEK293T cells were performed with a multiplicity of infection (MOI) of 0.3. Infected cells were selected in puromycin-containing medium to eliminate uninfected cells and three aliquots of cells were collected for sampling of the initial (T0) cell population. Cells were treated with MG132 at concentrations of 0, 10, 25, or 50 µM. For the cell viability screen, surviving cells were collected and gDNA was extracted for identification of peptide inhibitors of cell toxicity. For the inhibition of a-syn aggregation screen, a protein fragment complementation assay (PCA) was used by transfecting cells with split YFP-a-syn constructs following stable expression of the peptides. Cells were sorted based on their YFP fluorescence intensities with a FACSVantage SE cell sorter (BD Bioscience) and gDNA was extracted for identification of peptides.
(§3) Genomic DNA (gDNA) from peptide expressing cells at different time-points was extracted using QIAamp DNA Blood Mini Kit. PCR amplifications of peptides from gDNA in parallel with the lentiviral plasmid library (naïve library) were performed using indexed Illumina PCR primers to incorporate both the Illumina adapter sequences and indexing sequences. Each 50 μl reaction contained 3.2 μg of template, 2× PCR buffer, 2× enhancer solution, 300 μM each dNTP, 900 nM each of Adapter A (5′-[…]-[…]-3′) and Adapter B (5′-[…]-[…]-3′), 1 mM MgSO4, 3.75 units of Platinum Pfx polymerase, and water to 50 μl. […]

[2] = tested on: A53T a-syn-mediated cytotoxicity in HEK293 cells; assay: Pooled lentiviral 7-mer peptide cytotoxicity screen, A53T a-syn + MG132; settings: for Reads 0M MG132: Illumina reads, average Phred >30;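 for Slope Norm Reads: reads normalized to total peptide reads per sample with scalar factor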
Text: as §1, §2, §3

A53T a-syn oligomers = assay: Split-YFP PCA/FACS screen of A53T a-syn oligomers
Text: as §1, §2
Cells were harvested by trypsin treatment and centrifuged at 500 × g for 5 min. The pellet was resuspended in ice-cold PBS and centrifuged again. The pellet was then resuspended at a concentration of 4 × 10^6 cells/ml in the sorting buffer, which is PBS containing 100 Kunitz DNase I/ml, 10 μg/ml propidium iodide (Sigma), and 2% FBS. The cells were then sent through a 40 μm filter to remove large clumps and loaded into either a FACScan Flow Cytometer (BD Bioscience) for cell analysis or a FACSVantage SE cell sorter (BD Bioscience) for cell sorting. The cells with positive propidium iodide staining (i.e., dead cells) were first eliminated from the analysis. […]

[3] = tested on: A53T a-syn expressing HEK293 cells; assay: Cell Titer-Glo cell viability, A53T a-syn expressing cells; settings: A53T a-syn cells
Experimental: Oligonucleotides encoding the specific peptides were synthesized and individually cloned into the pLJM1 nGFP lentiviral vector. HEK293T cells were infected with individual constructs, and cell viability was assessed using Cell Titer-Glo luminescent assay (Promega) at 72 h post infection.
Cells were trypsinized from subconfluent cultures as described earlier, suspended in culture media, and then seeded into triplicate wells of a 96-well plate (100 µl/well) at a density of 1.5 × 10^4 cells per well with standard culture conditions of 5% CO2 at 37 °C. Cells were infected with lentivirus expressing peptide at a MOI of 5 for 72 h or transfected with plasmid for 72 h. Cell Titer-Glo reagent was added to each well (30 µL), according to the manufacturer’s protocol and […].

| Substance | Reads 10M MG132 [1] | Reads 25M MG132 [1] | Slope Norm Reads [1] | Reads 0M MG132 [1] | Reads 10M MG132 [2] | Reads 25M MG132 [2] | Reads 50M MG132 [2] | Slope Norm Reads [2] | Reads 0M MG132 [2] | Reads GFP High (A53T a-syn oligomers) | Reads GFP Inter (A53T a-syn oligomers) | Reads GFP Neg (A53T a-syn oligomers) | Reads Ratio (A53T a-syn oligomers) | other results |
| --- | --- | --- | --- | --- | --- | --- | --- | --- | --- | --- | --- | --- | --- | --- |
| DWLMVNL [library 7-mer, WT screen] | 13 | 29 | 0.13 | 1 | – | – | – | – | – | – | – | – | – | – |
| QVSVAQQ [library 7-mer, A53T screen] | – | – | – | – | 13 | 120 | 246 | 0.69 | 45 | – | – | – | – | – |
| LKRDQPV [library 7-mer, oligomers screen] | – | – | – | – | – | – | – | – | – | 3 | 0 | 118 | 30.30 | – |
| NNQYSFV [library 7-mer, oligomers screen] | – | – | – | – | – | – | – | – | – | 1 | 0 | 58 | 30.04 | – |
| WPRYPHI [library 7-mer, oligomers screen] | – | – | – | – | – | – | – | – | – | 1 | 0 | 92 | 47.36 | – |
| GAAAGGT [library 7-mer, WT screen] | 10 | 17 | 0.06 | 1 | – | – | – | – | – | – | – | – | – | – |
| QSPSSAW [library 7-mer, A53T screen] | – | – | – | – | 45 | 59 | 284 | 0.82 | 9 | – | – | – | – | – |
| PLPTGMG [library 7-mer, WT screen] | 3 | 20 | 0.08 | 1 | – | – | – | – | – | – | – | – | – | – |
| LSGECVP [library 7-mer, WT screen] | 28 | 28 | 0.07 | 3 | – | – | – | – | – | – | – | – | – | – |
| GWTTVRR [library 7-mer, A53T screen] | – | – | – | – | 1 | 29 | 322 | 0.94 | 15 | – | – | – | – | – |
| CHMP2B 1-178: shorter truncated version of CHMP2B (amino acids 1–178), implicated in FTD | – | – | – | – | – | – | – | – | – | – | – | – | – | Effect on cell survival/viability [3]: increased toxicity |
| RAPSCHL [library 7-mer, WT screen] | 13 | 33 | 0.15 | 1 | – | – | – | – | – | – | – | – | – | – |
| PAMQIDG [library 7-mer, A53T screen] | – | – | – | – | 20 | 53 | 337 | 0.96 | 32 | – | – | – | – | – |
| QSVVTAP [library 7-mer, A53T screen] | – | – | – | – | 6 | 37 | 465 | 1.38 | 8 | – | – | – | – | – |
| CFLFQIQ [library 7-mer, oligomers screen] | – | – | – | – | – | – | – | – | – | 1 | 0 | 88 | 45.32 | – |
| ECHTKIR [library 7-mer, oligomers screen] | – | – | – | – | – | – | – | – | – | 1 | 0 | 76 | 39.21 | – |
| TQKRELT [library 7-mer, oligomers screen] | – | – | – | – | – | – | – | – | – | 1 | 0 | 69 | 35.64 | – |
| QAELSNS [library 7-mer, A53T screen] | – | – | – | – | 8 | 10 | 235 | 0.69 | 6 | – | – | – | – | – |
| EDVNKCV [library 7-mer, A53T screen] | – | – | – | – | 6 | 13 | 233 | 0.68 | 6 | – | – | – | – | – |
| LPSKIYK [library 7-mer, oligomers screen] | – | – | – | – | – | – | – | – | – | 1 | 0 | 57 | 29.53 | – |
| VYLDILG [library 7-mer, oligomers screen] | – | – | – | – | – | – | – | – | – | 1 | 0 | 59 | 30.55 | – |
| QSVLQQV [library 7-mer, A53T screen] | – | – | – | – | 2 | 12 | 282 | 0.82 | 13 | – | – | – | – | – |
| CMVHSAG [library 7-mer, WT screen] | 14 | 33 | 0.08 | 4 | – | – | – | – | – | – | – | – | – | – |
| CKYRSVL [library 7-mer, A53T screen] | – | – | – | – | 7 | 11 | 438 | 1.30 | 5 | – | – | – | – | – |
| LQVGVAV [library 7-mer, WT screen] | 25 | 23 | 0.09 | 1 | – | – | – | – | – | – | – | – | – | – |
| LPASMPC [library 7-mer, WT screen] | 16 | 27 | 0.09 | 2 | – | – | – | – | – | – | – | – | – | – |
| MQMKLSQ [library 7-mer, oligomers screen] | – | – | – | – | – | – | – | – | – | 1 | 0 | 70 | 36.15 | – |
| AAYNLCA [library 7-mer, WT screen] | 14 | 19 | 0.07 | 1 | – | – | – | – | – | – | – | – | – | – |
